The target of assay [1] is T1, Peroxisome proliferator-activated receptor delta (Homo sapiens) (UniProt Q03181).
T1 sequence (whole entry): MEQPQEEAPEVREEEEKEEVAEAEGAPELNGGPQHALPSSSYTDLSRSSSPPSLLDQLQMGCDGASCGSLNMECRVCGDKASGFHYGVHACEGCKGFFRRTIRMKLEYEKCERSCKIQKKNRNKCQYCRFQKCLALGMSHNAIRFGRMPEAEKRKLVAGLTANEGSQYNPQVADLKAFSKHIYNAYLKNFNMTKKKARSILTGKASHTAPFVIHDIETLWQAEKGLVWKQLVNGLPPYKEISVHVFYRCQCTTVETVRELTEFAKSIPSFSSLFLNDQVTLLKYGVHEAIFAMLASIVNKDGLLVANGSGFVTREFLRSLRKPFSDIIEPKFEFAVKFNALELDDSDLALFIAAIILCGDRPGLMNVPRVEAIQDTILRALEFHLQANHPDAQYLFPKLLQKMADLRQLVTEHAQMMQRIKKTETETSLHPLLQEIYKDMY
In words: Agonist activity at Gal4-tagged human PPARdelta ligand binding domain expressed in COS-7 cells at 30 uM measured after overnight incubation by dual-glo luciferase reporter gene assay. Format: cell-based.

In assay [2] the target is T2, Bifunctional epoxide hydrolase 2 (Homo sapiens, UniProt P34913).
T2 sequence (P34913 whole entry): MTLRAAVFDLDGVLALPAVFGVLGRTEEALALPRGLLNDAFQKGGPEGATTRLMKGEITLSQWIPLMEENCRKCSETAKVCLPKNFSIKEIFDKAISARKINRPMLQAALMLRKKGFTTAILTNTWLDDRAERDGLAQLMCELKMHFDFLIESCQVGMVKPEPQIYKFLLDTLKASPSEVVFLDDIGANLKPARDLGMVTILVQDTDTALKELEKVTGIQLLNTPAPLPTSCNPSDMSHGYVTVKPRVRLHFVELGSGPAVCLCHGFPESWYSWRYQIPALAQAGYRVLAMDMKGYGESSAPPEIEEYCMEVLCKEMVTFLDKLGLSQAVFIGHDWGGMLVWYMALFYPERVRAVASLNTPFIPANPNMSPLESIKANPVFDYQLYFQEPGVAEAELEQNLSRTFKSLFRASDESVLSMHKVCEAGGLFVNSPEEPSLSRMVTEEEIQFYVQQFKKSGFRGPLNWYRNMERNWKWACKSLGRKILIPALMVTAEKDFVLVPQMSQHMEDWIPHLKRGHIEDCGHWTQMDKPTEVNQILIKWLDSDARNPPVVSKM
In words: Inhibition of recombinant human […] assessed as product formation preincubated for 30 mins followed by addition of (3-phenyl-cyano-(6-methoxy-2-naphthalenyl)methyl ester-2-oxirane-acetic acid as substrate measured after 30 mins by fluorescence analysis. Conditions: for pIC50: read-out: IC50.

In assay [3] the target is T3, Peroxisome proliferator-activated receptor alpha (Homo sapiens) (UniProt Q07869).
T3 sequence (whole entry): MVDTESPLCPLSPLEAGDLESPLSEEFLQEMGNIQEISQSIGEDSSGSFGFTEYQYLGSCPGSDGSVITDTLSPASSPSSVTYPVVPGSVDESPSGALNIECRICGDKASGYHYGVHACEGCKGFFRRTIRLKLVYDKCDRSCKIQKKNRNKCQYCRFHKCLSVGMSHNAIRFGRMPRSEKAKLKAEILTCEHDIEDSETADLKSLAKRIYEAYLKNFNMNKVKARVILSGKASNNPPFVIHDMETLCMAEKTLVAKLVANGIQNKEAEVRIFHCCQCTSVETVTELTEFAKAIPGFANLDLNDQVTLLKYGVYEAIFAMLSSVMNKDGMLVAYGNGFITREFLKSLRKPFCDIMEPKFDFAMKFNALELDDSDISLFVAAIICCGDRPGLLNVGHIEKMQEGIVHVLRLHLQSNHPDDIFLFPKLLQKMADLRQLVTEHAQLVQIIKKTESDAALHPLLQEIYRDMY
In words: Agonist activity at Gal4-tagged human PPARalpha ligand binding domain expressed in COS-7 cells at 30 uM measured after overnight incubation by dual-glo luciferase reporter gene assay. The format is cell-based.

In assay [4] the target is T4, Peroxisome proliferator-activated receptor gamma (Homo sapiens) (UniProt P37231).
T4 sequence (whole entry): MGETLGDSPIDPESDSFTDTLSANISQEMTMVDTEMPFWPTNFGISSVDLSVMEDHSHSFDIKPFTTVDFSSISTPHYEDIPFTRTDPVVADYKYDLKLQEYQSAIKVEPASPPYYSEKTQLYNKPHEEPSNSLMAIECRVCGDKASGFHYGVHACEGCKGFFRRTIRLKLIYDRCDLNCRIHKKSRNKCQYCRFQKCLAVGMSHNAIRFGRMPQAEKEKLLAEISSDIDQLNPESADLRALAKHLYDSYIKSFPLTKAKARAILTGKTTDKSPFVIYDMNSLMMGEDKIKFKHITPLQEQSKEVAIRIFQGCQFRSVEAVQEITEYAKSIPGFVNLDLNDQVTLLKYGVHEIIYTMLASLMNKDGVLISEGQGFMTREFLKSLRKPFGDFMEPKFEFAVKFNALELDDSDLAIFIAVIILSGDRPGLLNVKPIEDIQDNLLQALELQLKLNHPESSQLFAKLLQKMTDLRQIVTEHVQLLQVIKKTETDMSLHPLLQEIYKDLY
In words: Agonist activity at Gal4-tagged human PPARgamma ligand binding domain expressed in COS-7 cells at 30 uM measured after overnight incubation by dual-glo luciferase reporter gene assay. The format is cell-based.

The target in assay [5] is T5, Peroxisome proliferator-activated receptor delta (Homo sapiens, UniProt Q03181).
T5 sequence (Q03181 whole entry): T1 sequence (whole entry)
As to the kind of experiment: Agonist activity at Gal4-tagged human PPARdelta ligand binding domain expressed in COS-7 cells measured after overnight incubation by dual-glo luciferase reporter gene assay. Format: cell-based. As to conditions: for EC50: cos-7.

Assay [6] has as its target T6, Peroxisome proliferator-activated receptor alpha (Homo sapiens, UniProt Q07869).
T6 sequence (Q07869 whole entry): T3 sequence (whole entry)
In words: Agonist activity at Gal4-tagged human PPARalpha ligand binding domain expressed in COS-7 cells measured after overnight incubation by dual-glo luciferase reporter gene assay. The format is cell-based. Conditions: for EC50: cos-7; for pEC50: read-out: EC50.

Assay [7] has as its target T7, Peroxisome proliferator-activated receptor gamma (Homo sapiens, UniProt P37231).
T7 sequence (P37231 whole entry): T4 sequence (whole entry)
In words: Agonist activity at Gal4-tagged human PPARgamma ligand binding domain expressed in COS-7 cells measured after overnight incubation by dual-glo luciferase reporter gene assay. Format: cell-based. Conditions: for EC50: cos-7; for pEC50: read-out: EC50.

The test system of assay [8] is 3T3-L1. In words: Agonist activity at PPAR in mouse 3T3L1 cells assessed as increase in adipocyte differentiation at 2 uM after 14 days by Oil Red O staining method. The format is cell-based.
Assay [9] concerns the target T3, Peroxisome proliferator-activated receptor alpha (Homo sapiens). In words: Agonist activity at Gal4-tagged human PPARalpha ligand binding domain expressed in COS-7 cells at 10 um measured after overnight incubation by dual-glo luciferase reporter gene assay. Format: cell-based.
Assay [10] has as its system 3T3-L1. As to the kind of experiment: Partial agonist activity at PPAR in mouse 3T3L1 cells assessed as increase in adipocyte differentiation after 14 days by Oil Red O staining method. Format: cell-based.
Assay [11] addresses T4, Peroxisome proliferator-activated receptor gamma (Homo sapiens). As to the kind of experiment: Agonist activity at Gal4-tagged human PPARgamma ligand binding domain expressed in COS-7 cells at 10 uM measured after overnight incubation by dual-glo luciferase reporter gene assay. The format is cell-based.

pEC50, pIC50: −log10 of the molar value. Active and inactive are the calls of the source. The rule behind the calls is not given here.

Take `CC(Oc1ccc(CNC(=O)Nc2ccc(Cl)cc2)cc1)C(=O)O` (configuration not stated): the result in assay [1], in assay [3] and in [4] was inactive. The negative logarithm of the IC50 (pIC50) in assay [2] is 6.07.

As to `CCOC(=O)C(C)Oc1ccc(CNC(=O)Nc2ccc(Cl)cc2)cc1` (configuration not stated), the result in [1], in [3] and in [4] was inactive. The negative-log IC50 (pIC50) in assay [2] is 7.19.

For `CNc1nc(C)nc(N[C@H]2CCC[C@@H](C(=O)NCc3ccc(C#N)cc3C(F)(F)F)C2)n1` [GSK2256294], the EC50 result in assay [5], in assay [6] and in assay [7] was “Not Active” in each case.

Consider `CCCCCCC(Sc1nc(Cl)cc(NCCCC(=O)NCc2ccccc2C(F)(F)F)n1)C(=O)OCC` (configuration not stated), for which the pIC50 in [2] is 5.89. The EC50 result in assay [5], in [6] and in assay [7] was “Not Active” throughout.

`CN(CCOc1ccc(CC2SC(=O)NC2=O)cc1)c1ccccn1` (configuration not stated): the result in the assay with 3T3-L1 [8] was Active.

Consider `CCCCCCC(Sc1nc(Cl)cc(N2CCC(C(=O)NCc3ccccc3C(F)(F)F)CC2)n1)C(=O)O` (configuration not stated), for which the Emax in [9] came to 65%. In addition, in assay [2], the negative logarithm of the IC50 (pIC50) was 6.52. For the same compound, the EC50 result in [5] and in assay [7] was “Not Active” each time.

In the case of `CCCCCCC(Sc1nc(Cl)cc(NCCCC(=O)NCc2ccccc2C(F)(F)F)n1)C(=O)O` (configuration not stated), in [2], the pIC50 is 5.92. The EC50 entry in assay [5] is “Not Active”. Further, the pEC50 in assay [6] is 5.60; in assay [7] it was 5.22. Also, in the assay with 3T3-L1 [10], the Activity result is “Dose-dependent effect”.

On to `CC/C(=C\c1ccc(N2CCC(C(=O)NCc3ccccc3C(F)(F)F)CC2)cc1)C(=O)O`, for which, in [2], the negative-log IC50 (pIC50) is 7.57. The EC50 result in assay [5], in assay [6] and in [7] was “Not Active” in each case.

For `CCC(Cc1ccc(N2CCC(C(=O)NCc3ccccc3C(F)(F)F)CC2)cc1)C(=O)O` (configuration not stated), the negative-log IC50 (pIC50) in assay [2] is 7.12. Also, the EC50 entry in assay [5], in assay [6] and in [7] was “Not Active” each time.

As to `CC(C)(Oc1ccc(CCNC(=O)c2ccc(Cl)cc2)cc1)C(=O)O` [BEZAFIBRATE], the IC50 entry in assay [2] is “Not Active”. For the same compound, the results for the pEC50 in assay [5] (read-out: EC50) and in assay [7] were 4.65 and 4.81, respectively.

As for `O=C(Nc1ccc(I)cc1)NC1CCCCC1`, the EC50 entry in [5] and in assay [6] was “Not Active” throughout. Moreover, the Emax in assay [11] was determined as 22%.

For the compound `CCCCCCC(Sc1nc(Cl)cc(Nc2ccc(Nc3ccccc3)cc2)n1)C(=O)O` (configuration not stated), the IC50 result in assay [2] was “Not Active”. In addition, the EC50 entry in assay [5] is listed as “Not Active”. For the same compound, the pEC50 in [6] is 7.17.

`CCCCCCC(Sc1nc(Cl)cc(N2CCC(C(=O)NCc3ccccc3C(F)(F)F)CC2)n1)C(=O)OCC` (configuration not stated): the negative logarithm of the IC50 (pIC50) in assay [2] was 5.60. In addition, the EC50 result in [5], in assay [6] and in assay [7] was “Not Active” each time.

In the case of `CCOC(=O)C(C)Oc1ccc(CCNC(=O)Nc2ccc(Cl)cc2)cc1` (configuration not stated), the result in [1], in assay [3] and in assay [4] was inactive. Besides, the negative logarithm of the IC50 (pIC50) in assay [2] is 7.57.

Turning to `CCOC(=O)C(CC)Cc1ccc(N2CCC(C(=O)NCc3ccccc3C(F)(F)F)CC2)cc1` (configuration not stated), the negative-log IC50 (pIC50) in assay [2] is 7.64. The EC50 result in [5], in assay [6] and in [7] was “Not Active” each time.

As for `CC(Oc1ccc(CCNC(=O)Nc2ccc(Cl)cc2)cc1)C(=O)O` (configuration not stated), the outcome in assay [1], in assay [3] and in assay [4] was inactive. The pIC50 in [2] was 6.24.

For `CCOC(=O)/C(=C/c1ccc(N2CCC(C(=O)NCc3ccccc3C(F)(F)F)CC2)cc1)CC`, the pIC50 in assay [2] is 7.40. For the same compound, the EC50 entry in assay [5], in assay [6] and in assay [7] was “Not Active” throughout.

Source of the values: ChEMBL document CHEMBL3817847, “Design and synthesis of fused soluble epoxide hydrolase/peroxisome proliferator-activated receptor modulators” (Medchemcomm, 2016).
